Measured values as given in US9212178B2, “Substituted pyrimidine compounds and their use as SYK inhibitors” (Genosco, priority 2013, dated 2015).
Like-named read-outs stand apart in the source and are kept apart here.

Assays:
SUDHL6 = experiment: DLBCL cell proliferation, ATPLite assay; assay type: cell-based, human; conditions: for IC50: SUDHL6, 72 hours, read-out: Inhibition of proliferation IC50; for Inhibition of proliferation (in words): SUDHL6
From the text: (§1) Several lines of evidence support the role of B cell receptor (BCR)-mediated survival signals in certain B cell malignancies such as non-Hodgkin lymphomas (NHL) including diffuse large B cell lymphoma (DLBCL). B cell receptor (BCR) signaling pathway components represent promising treatment targets in diffuse large B cell lymphoma (DLBCL) and additional B cell tumors. In order to address whether SYK inhibitor of Compounds of Formula (I), cellular viability of diffuse large B cell lymphoma (DLBCL) cells was measured on treatment of a series of concentration of SYK inhibitor.
(§2) The DLBCL cells, SUDHL4, SUDHL6 and OCI-LY1 […] were obtained from the American Type Culture Collection (ATCC, Manassas, Va., USA) or DSMZ (Braunschweig, Germany). […] The SUDHL4, SUDHL6 and OCI-LY1 cells were seeded at 1×10^5 cells/100 μL/well into 96 well culture plate, and serially diluted compound was then added. After an 72 hours of incubation period at 37° C., cells were subjected to an ATPLite assay (PerkinElmer) to determine the cytotoxic effects of the compound. The IC50 value of the test compound was calculated at Gradpad Prism 5 unless otherwise specified.

OCI-LY1 = experiment: DLBCL cell proliferation, ATPLite assay; assay type: cell-based, human; conditions: for IC50: OCI-LY1, 72 hours, read-out: Inhibition of proliferation IC50; for Inhibition of proliferation (in words): OCI-LY1
From the text: as §1, §2

SUDHL4 = experiment: DLBCL cell proliferation, ATPLite assay; assay type: cell-based, human; conditions: for IC50: SUDHL4, 72 hours, read-out: Inhibition of proliferation IC50; for Inhibition of proliferation (in words): SUDHL4
From the text: as §1, §2

THP-1 cells = experiment: SYK-dependent TNF-α release assay (IgG stimulation), ELISA; assay type: cell-based; conditions: THP-1 cells on human IgG-coated plate, 18 hours; read-out: TNF-α release inhibition, IgG stimulation IC50
Method: In order to address cellular potency of Compounds of Formula (I), TNF-a production was measured on treatment of a series of concentration of SYK inhibitor in THP-1 cells.
For SYK-dependent TNF-α release assay (i.e., via IgG stimulation), THP-1 cells derived from human monocytic cells were obtained from the American Type Culture Collection (ATCC, Manassas, Va.). This cell line was maintained with a Roswell Park Memorial Institute (RPMI) medium (GIBCO) containing 10% fetal bovine serum (FBS; GIBCO) and 0.05 mM solution of 2-mercaptoethanol. The THP-1 cells were seeded at 1×10^5 cells/100 μL/well into human IgG (10 ng/well, INVITROGEN)-coated 96 well culture plate, and serially diluted compound was then added. After an 18 hours of incubation period at 37° C., supernatants were collected for the determination of the TNF-α level by enzyme-linked immunosorbent assay (ELISA), and the remaining cells were subjected to an MTT (yellow tetrazolium salt) assay to determine the cytotoxic effects of the compound. The IC50 value of the test compound was calculated at Gradpad Prism 5 unless otherwise specified.

[1] = system: Collagen-induced arthritis in DBA/1J mice; experiment: Collagen-induced arthritis (CIA) mouse model, macroscopic paw scoring; assay type: in vivo; conditions: for CIA index (arthritic score of test group / vehicle group x 100): 30 mg/kg/day once daily oral gavage, vehicle = 100.0
Method: CIA mouse model was induced in DBA/1J mice (Japan Charles River Breeding Laboratories, Kanagawa, Japan) with 5 to 6 weeks of age. Animals were maintained at a temperature of 20±5° C. and a relative humidity of 40˜60%.
Bovine type II collagen (CII, 2 mg/ml dissolved in 0.05 M acetic acid, Chondrex, Redmond, Wash.) was emulsified in equal volumes of Freund's complete adjuvant (4 mg/ml of Mycobacterium tuberculosis strain H37Ra; Chondrex, Redmond, Wash.). On day 0, mice were immunized intradermally at the base of the tail with 100 μg bovine type II collagen emulsified in Freund's complete adjuvant. On day 21, all mice were boosted with an intraperitoneal injection of 100 μg type II collagen.
These compounds were dissolved in NMP/20% cyclodextrin/PEG400 5:45:50 solution and filtered by […] membrane filter. All the test substances were administered once daily at 30 mg/kg/day by oral gavage for 3 weeks.
The gradual onset of arthritis usually starts approximately 3 weeks after initial immunization. The progression of CIA was evaluated by the macroscopic scoring of paws at intervals of 3 days. The edema and swelling of each paw was scored visually as was described previously, using a scale of 0-4, where 0=no visible abnormalities, 1=mild redness or swelling of the wrist or up to three inflamed digits, 2=more than three inflamed digits or moderate redness and swelling of the ankle or wrist, 3=severe ankle and wrist inflammation, 4=extensive ankle and wrist inflammation including all digits. Therefore, the score of each mouse was calculated for the four limbs (maximum total score of 16 for each mouse) (Courtenay J S, Dallman M J, Dayan A D, et al., Immunisation against heterologous type II collagen induces arthritis in mice, Nature, 1980, 283, 666-668)
Arthritis was considered to be present if the score was >2. The blind scoring was performed by four independent observers. In this study, data was calculated by following equation. […] Results

[2] = system: Human peripheral CD19+ B cells; experiment: Cellular SLE model: immunoglobulin production in human peripheral B cells stimulated via TLR9 (ODN2006); assay type: cell-based; conditions: for IC50: human B cell, ODN2006 and IL-2, 6 days; for Inhibition of IgG and IgM production (in words): TLR9 stimulated by ODN2006 and IFNα
From the text: Systemic lupus erythematosus (SLE) is a chronic inflammatory autoimmune disease and can affect several organs and systems. It is characterized by high production of autoantibodies against nuclear compounds. TLR7/8/9 are responsible for nucleic acid recognition and they trigger proinflammatory responses through activation of […] and Type I IFN production, making a bridge between the innate and the adaptive immune systems. TLR9 signaling pathway was adopted for cellular SLE model using human peripheral B cells to test potency of SYK inhibitor of Formula (I).
Human peripheral CD19+ B cells from an adult healthy donor were purchased from Sanguine Biosciences (Sherman Oaks, Calif.). B cells were cultured in 96-well plates with complete RPMI 1640 medium (Corning, Tewksbury, Mass.) supplemented with 10% heat-inactivated FBS (Life Technologies, Grand Island, N.Y.) and penicillin/streptomycin (Corning). B cells were stimulated with 1 μM ODN2006 (InvivoGen, San Diego, Calif.) and 20 ng/ml IFNα (PBL Assay Science, Piscataway, N.J.) for 3 days for toll-like receptor-9 (TLR-9)-mediated B cell growth. To differentiate naïve B cells into plasma cells, peripheral B cells were differentiated with 50 nM ODN2006 and 10 ng/ml IL-2 in a presence of various concentrations of SYK inhibitors for 6 days. Culture supernatants were collected and IgM and IgG production was measured using human IgM or IgG ELISA kit (BioLegend).

full-length human SYK = full-length human SYK (Homo sapiens (Human), UniProt P43405); experiment: Inhibition of enzymatic SYK kinase activity (LANCE Ulight TK peptide); assay type: biochemical; conditions: ATP at Km (15 uM), 30 min pre-incubation
Method: Compounds of the present invention were assayed to measure their capacity to inhibit a spleen tyrosine kinase (SYK).
Compounds of the invention were initially diluted to 10 mM in 100% DMSO (CALBIOCHEM™) for storage and made into kinase buffer solution to create a compound concentration ranging from 1 uM and 10 uM. Serial dilutions of compounds of the invention were dispensed into a 96-well plate (GREINER BIOSCIENCES™) at 6 μL each. Purified full-length human SYK (CARNA BIOSCIENCES™) were diluted in kinase buffer and added to the compound solutions and pre-incubated for 30 minutes at room temperature. […] The reaction mixture was incubated for 1 hour. Following the incubation, the stop solution made with EDTA, water, and Lance detection buffer ([…]™) was added (12 μL each) to stop phosphorylation.

[3] = 144 h, read-out: Inhibition of immunoglobulin production, IgG IC50
[4] = 144 h, read-out: Inhibition of immunoglobulin production, IgM IC50

Row | Compound | IC50 (SUDHL6; Homo sapiens, SU-DHL-6) | Inhibition of proliferation (in words) (SUDHL6) | IC50 (OCI-LY1; Homo sapiens) | Inhibition of proliferation (in words) (OCI-LY1) | IC50 (SUDHL4; Homo sapiens, SU-DHL-4) | Inhibition of proliferation (in words) (SUDHL4) | IC50 (THP-1 cells) | IC50 [2, 3] | IC50 [2, 4] | Inhibition of IgG and IgM production (in words) [2] | other results
1 | Cc1nn(-c2ccnc(Nc3ccc4c(c3)c(C(=O)C3CC3)cn4C)n2)cc1CN1C[C@H](O)CO1 [Compound 1, (S)-cyclopropyl(5-(4-(4-((4-hydroxyisoxazolidin-2-yl)methyl)-3-methyl-1H-pyrazol-1-yl)pyrimidin-2-ylamino)-1-methyl-1H-indol-3-yl)methanone] | 2.84 µM | potent inhibition | 1.83 µM | potent inhibition | 1.07 µM | potent inhibition | 0.052 µM | 0.296 µM | 0.232 µM | potent inhibition | Inhibition in arthritis phenotype indicated by CIA, compared with R788 (in words) ([1]; 30 mg/kg/day oral, versus R788): stronger inhibition; CIA index (arthritic score of test group / vehicle group x 100) ([1]; day 4): 3.0 ± 2.8%; CIA index (arthritic score of test group / vehicle group x 100) ([1]; day 7): 24.0 ± 9.2%; CIA index (arthritic score of test group / vehicle group x 100) ([1]; day 10): 40.1 ± 13.8%; CIA index (arthritic score of test group / vehicle group x 100) ([1]; day 13): 36.2 ± 12.0%; CIA index (arthritic score of test group / vehicle group x 100) ([1]; day 17): 33.5 ± 10.5%; CIA index (arthritic score of test group / vehicle group x 100) ([1]; day 19): 33.6 ± 10.4%
2 | COc1cc(Nc2ncc(F)c(Nc3ccc4c(n3)NC(=O)C(C)(C)O4)n2)cc(OC)c1OC [Compound R406, reference compound] |  |  |  |  |  |  | 0.217 µM |  |  |  | IC50 (SUDHL6): 3.23 µM; IC50 (OCI-LY1): 3.89 µM; IC50 (SUDHL4): 3.67 µM; IC50 ([2]; read-out: Inhibition of immunoglobulin production, IgG IC50): 0.369 µM; IC50 ([2]; read-out: Inhibition of immunoglobulin production, IgM IC50): 0.18 µM
3 | Cn1cc(C(=O)C2CC2)c2cc(Nc3nccc(-n4cc(CN5C[C@H](O)CO5)cn4)n3)ccc21 [Compound 30, (S)-cyclopropyl(5-(4-(4-((4-hydroxyisoxazolidin-2-yl)methyl)-1H-pyrazol-1-yl)pyrimidin-2-ylamino)-1-methyl-1H-indol-3-yl)methanone] | 0.929 µM | potent inhibition | 2.3 µM | potent inhibition | 0.952 µM | potent inhibition | 0.017 µM | 0.188 µM | 0.09 µM | potent inhibition | IC50 (full-length human SYK): 0.00246 µM
